What was measured:
THP-1 cells = experiment: Human IL-8 activity, dose response of calcium flux agonists without added TLR or NOD ligand; type: cell-based; settings: 24 hours, increasing concentrations, no added TLR or NOD ligand, FIGS. 1A-1C
From the text: (§1) The inventors performed several studies to identify the effect of calcium flux agonists on various components of an immune response, and particularly on the effect of calcium flux agonists on IL-8 production and activation of NF-κB signaling. […] The dose response is observed over relatively large windows for ionophores (e.g., A23187 and ionomycin) and over at least two orders of magnitude for SERCA inhibitors (e.g., thapsigargin).
(§2) More specifically, the dose response of ionophores on NF-κB and IL-8 is shown in FIGS. 1A-1B using a monocyte-derived cell line to treatment and A23187 and ionomycin in the absence of externally added TLR or NOD ligands. […] FIG. 1C depicts the dose response to thapsigargin on NF-κB and IL-8.
Human IL-8 activity: A titration of thapsigargin (A.G. Scientific, San Diego Calif.), ionomycin (Sigma-Aldrich, St. Louis Mo.), and the calcium ionophore A23187 (Sigma-Aldrich) was added to a 96-well plate (Thermo Matrix, Waltham Mass.) seeded with 150,000 THP-1 cells (ATCC TIB-202) grown in RPMI 1640 (Cellgro, Herndon VA) supplemented with 10% FBS (Thermo HyClone, Waltham Mass.) and 1% penicillin-streptomycin-fungizone (Thermo HyClone). 24 hours after addition, 25 uL of supernatant was removed and assayed for human IL-8 using the Meso Scale Discovery Human IL-8 Tissue Culture Kit (MSD, Rockville, Md.) per manufacturer's protocol. The results were analyzed using the Meso Scale Discovery SECTOR Imager 2400 and normalized to a titration of human IL-8 supplied by the MSD Kit.

[1] = system: κB-LUC THP-1 (NF-κB Luciferase Reporter); experiment: NF-κB activation, luciferase reporter, dose response without added ligand; type: cell-based, human; settings: κB-LUC THP-1, 24 hours, increasing concentrations, no added ligand; FIGS. 1A-1C
From the text: as §1, §2
NF-κB activation: A titration of thapsigargin (A.G. Scientific), ionomycin, and the calcium ionophore A23187 was added to a 96-well plate (Thermo Matrix) seeded with 150,000 THP-1 κB-LUC THP-1's (THP-1 cells containing the stable integration of a NF-κB Luciferase Reporter) grown in RPMI 1640 (Cellgro, Herndon VA) supplemented with 10% FBS (Thermo HyClone) and 1% penicillin-streptomycin-fungizone (Thermo HyClone). 24 hours after addition, 25 uL of Bright-Glo Luciferase Assay System (Promega, Madison Wis.) was added to each well and analyzed for luciferase activity using Perkin Elmer TopCount NXT (Perkin Elmer, Waltham Mass.).

[2] = system: κB-LUC THP-1 reporter cells; experiment: κB-LUC THP-1 reporter response to S. aureus conditioned/spent media (FIGS. 5B-5E); type: cell-based, human; settings: 1:100 conditioned media, 18 hours; 20 nM thapsigargin, 316 nM A23187, 1 μM ionomycin vs DMSO vehicle
From the text: Briefly, a culture of logarithmically dividing S. aureus was washed three times with RPMI 1640 (Cellgro). Concurrently, THP-1 κB-LUC THP-1's (THP-1 cells containing the stable integration of a NF-κB luciferase reporter gene) cultured in RPMI 1640 (Cellgro) supplemented with 10% FBS (Thermo HyClone, Waltham Mass.) and 1% penicillin-streptomycin-fungizone (Thermo HyClone) were washed three times with RPMI 1640 (Cellgro) and transferred to the bottom compartment of a 24-well 0.4 μm cutoff transwell plate (Corning) at a concentration of 1.2 million/mL. Dilutions of the washed S. aureus culture were then added to the top chamber of the transwell system at the indicated initial multiplicities of infection (MOI). The cells were incubated for 18 hours at 37° C. at which time aliquots of 60,000 cells were transferred to wells in a 384-well white bottom plate (Thermo). To evaluate luciferase gene expression, Bright-Glo Luciferase Assay Reagent (Promega) was added to each well and the plates were analyzed for luciferase activity using the Perkin Elmer TopCount NXT system (Perkin Elmer).
To determine whether the recognition of S. aureus-produced products could be further augmented through modulation of calcium flux, κB-LUC THP-1 reporter cells were incubated in the presence of a 1:100 dilution (V/V) of sterile filtered S. aureus conditioned (i.e. spent) or unused sterile media and treated with a suboptimal dose (20 nM) of thapsigargin or dimethyl sulfoxide (DMSO) vehicle control as described above. Briefly, conditioned media was produced by culturing S. aureus in RPMI with 10% fetal bovine serum overnight in a shaking incubator at 37° C. following which the bacteria were pelleted by centrifugation and the supernatants filter-sterilized using a 0.2 μm filter (VWR Radnor PA). The κB-LUC THP-1 cells were incubated in the presence of the conditioned/spent media for 18 hours prior to luciferase assay as described above.

S. aureus = experiment: Mouse model of S. aureus skin wound infection, pre-infection topical treatment; type: in vivo, C57BL/6 mice; settings: topical 2 mM formulation one day before infection; for bacterial burden at the infection site: day 7, vs vehicle controls; for wound size: days 3, 5 and 7 of infection, vs control treated animals, p<0.01
Experimental: To determine if calcium flux agonists such as the ionophores A23187 and ionomycin or the SERCA pump inhibitor thapsigargin can be used as a pre-treatment of bacterial infection, the inventors treated the shaved dorsal skin of 6-8 week old male C57B1/6 mice with vehicle alone, or formulations containing 2 mM A23187, ionomycin, or thapsigargin. One day later, the inventors superficially infected the dorsal skin of groups of 5 mice with 2×10^6 CFU of S. aureus and evaluated bacterial burden and wound size over the next week.
Topical delivery: A23187 and ionomycin and thapsigargin were reconstituted in dehydrated ethanol (Spectrum Chemicals, Gardena Calif.) to appropriate concentrations for subsequent formulations. In the pre-infection in vivo study, topical formulations consisted of 75% dehydrated ethanol (Spectrum Chemicals), 22% cyclohexane (Sigma-Aldrich), and 3% dimethyl sulfoxide (Sigma-Aldrich). Each topical formulation was delivered by submersing a circular piece of Whatman paper (Whatman, a division of GE Healthcare) with a 1.0 centimeter diameter and applying said circle to the skin of each recipient for 5 minutes.
Preparation of S. aureus for skin inoculation: Briefly, mid-logarithmic phase S. aureus bacteria was washed twice and resuspended in sterile saline (0.9%) at the noted concentrations. Mice: Male mice, 6-8 weeks old, on a C57BL/6 genetic background were used in all experiments (Jackson Laboratories, Bar Harbor, Me.).
Mouse model of S. aureus skin wound infection: To prepare animals for wound infection, the skin of the posterior upper back and neck of mice was shaved using #40 clippers. Next, three parallel 8 mm long full-thickness scalpel cuts (no. 11 blade) were made into the dermis. Resulting wounds were inoculated with 10 μl of S. aureus (2×10^8 CFUs per mL) with a micropipettor. Total lesion size (cm2) measurements were quantified by determining total pixel count from photographed animals using a millimeter ruler as a reference.
Quantification of in vivo S. aureus bacterial burden: To determine in vivo bacterial burden, infected mice were sacrificed on day 7 following infection and lesions were harvested surgically. Harvested tissues were homogenized and bacterial count was determined following plating on appropriate solid growth media.

SMILES | IL-8 production (THP-1 cells) | activation of NF-κB signaling [1] | NF-κB reporter response to S. aureus conditioned/spent media [2] | bacterial burden at the infection site (S. aureus) | wound size (S. aureus)
C[C@H](CCC(=O)O)C[C@H](C)C[C@H](C)C(=O)/C=C(\O)[C@H](C)C[C@H](C)C/C=C/[C@@H](C)[C@@H](O)[C@@H](C)[C@@H](O)C[C@@H]1CC[C@@](C)([C@H]2CC[C@@](C)([C@@H](C)O)O2)O1 [ionomycin] | significant increases | significant increases | significantly enhanced | significantly fewer bacteria | significantly smaller wound sizes
C/C=C(/C)C(=O)O[C@H]1C(C)=C2[C@H]([C@@H]1OC(=O)CCCCCCC)[C@@](C)(OC(C)=O)C[C@H](OC(=O)CCC)[C@@]1(O)[C@H]2OC(=O)[C@@]1(C)O [thapsigargin] | significant increases | significant increases | significantly enhanced | significantly fewer bacteria | significantly smaller wound sizes
CNc1ccc2oc(C[C@H]3O[C@@]4(CC[C@H]3C)O[C@H]([C@H](C)C(=O)c3ccc[nH]3)[C@H](C)C[C@H]4C)nc2c1C(=O)O [A23187, calcimycin] | significant increases | significant increases | significantly enhanced | significantly fewer bacteria | significantly smaller wound sizes
